This is an account of results in patent US8916579B2, “5-fluoropyrimidinone derivatives” (Dow AgroSciences, LLC., priority 2009, dated 2014).

Read-outs that look alike come from different tables or passages of the source.

The subject of data set [1] is Mycosphaerella graminicola; anamorph: Septoria tritici; Bayer code SEPTTR. In words: Fungicidal activity: leaf blotch of wheat, greenhouse wheat plants (variety Yuma), percent disease control. The data set is classed as in vivo. Particulars: Zymoseptoria tritici. As to the method: Evaluation of Fungicidal Activity: Leaf Blotch of Wheat (Mycosphaerella graminicola; anamorph: Septoria tritici; Bayer code SEPTTR)
Wheat plants (variety Yuma) were grown from seed in a greenhouse in 50% mineral soil/50% soil-less Metro mix until the first leaf was fully emerged, with 7-10 seedlings per pot. These plants were inoculated with an aqueous spore suspension of Septoria tritici either prior to or after fungicide treatments. After inoculation the plants were kept in 100% relative humidity (one day in a dark dew chamber followed by two to three days in a lighted dew chamber) to permit spores to germinate and infect the leaf. The plants were then transferred to a greenhouse for disease to develop.
The effectiveness of the test compounds in controlling disease was determined by assessing the severity of disease on treated plants, then converting the severity to percent control based on the level of disease on untreated, inoculated plants. • In each case of Table II the rating scale is as follows: […]

[2] abbreviates: 24 h, read-out: SEPTTR 100 PPM 1DP (% Disease Control rating).
The mark [3] stands for this setting: 72 h, read-out: SEPTTR 100 PPM 3DC (% Disease Control rating).
Where [4] appears, read: 24 h, One-Day Protectant (1DP), 100 ppm, wheat plants, read-out: SEPTTR 100 PPM 1DP (% Disease Control rating).
The mark [5] stands for this setting: 72 h, Three-Day Curative (3DC), 100 ppm, wheat plants, read-out: SEPTTR 100 PPM 3DC (% Disease Control rating).

For the compound `O=c1nc(NCN2CCOCC2)c(F)cn1CN1CCOCC1` [Compound 1, 5-fluoro-1-morpholin-4-ylmethyl-4-[(morpholin-4-ylmethyl)amino]-1H-pyrimidin-2-one], the pest or weed control at 100 ppm in data set [1] (setting [2]) and in data set [1] (setting [3]) was 76 to 100% throughout.
Consider `CN1CCN(CNc2nc(=O)n(CN3CCN(C)CC3)cc2F)CC1` [Compound 2, 5-fluoro-1-(4-methylpiperazin-1-ylmethyl)-4-[(4-methylpiperazin-1-ylmethyl)-amino]-1H-pyrimidin-2-one], for which the pest or weed control at 100 ppm in data set [1] (setting [2]) and in data set [1] (setting [3]) was 76 to 100% each time.
As to `CN(C)/C=N/c1nc(=O)n(Cc2ccc(F)cc2)cc1F` [Compound 4, N′-[5-fluoro-1-(4-fluorobenzyl)-2-oxo-1,2-dihydro-pyrimidin-4-yl]-N,N-dimethylformamidine], the pest or weed control at 100 ppm in data set [1] (setting [4]) lay within 26 to 50%; in data set [1] (setting [5]), 0 to 25%.
As to `CN(C)/C=N/c1nc(=O)n(Cc2ccc(Cl)cc2Cl)cc1F` [Compound 5], the pest or weed control at 100 ppm in data set [1] (setting [4]) and in data set [1] (setting [5]) was 0 to 25% each time.
For the compound `Cc1ccc(C(=O)Nc2nc(=O)n(C)cc2F)cc1` [Compound 8, N-(5-fluoro-1-methyl-2-oxo-1,2-dihydro-pyrimidin-4-yl)-4-methyl-benzamide], the pest or weed control at 100 ppm was in the range of 26 to 50% in data set [1] (setting [4]) and 0 to 25% in data set [1] (setting [5]).
In the same order, the values of `CN(c1nc(=O)n(C)cc1F)S(=O)(=O)Cc1ccccc1` [Compound 9, N-(5-fluoro-1-methyl-2-oxo-1,2-dihydropyrimidin-4-yl)-N-methyl-C-phenylmethanesulfonamide] are 26 to 50% and 0 to 25%.
Consider `CC(C)COC(=O)N(C)c1nc(=O)n(C)cc1F` [Compound 11, (5-fluoro-1-methyl-2-oxo-1,2-dihydropyrimidin-4-yl)methylcarbamic acid isobutyl ester], for which the pest or weed control at 100 ppm in data set [1] (setting [2]) was 26 to 50%; in data set [1] (setting [3]), 0 to 25%.
Turning to `CN(C)/C=N/c1nc(=O)n(COC(=O)C(C)(C)C)cc1F` [Compound 12, 2,2-dimethylpropionic acid 4-(dimethylamino-methyleneamino)-5-fluoro-2-oxo-2H-pyrimidin-1-ylmethyl ester], the pest or weed control at 100 ppm in data set [1] (setting [4]) and in data set [1] (setting [5]) was 76 to 100% in each case.
Take `O=c1nc(NCOCc2ccccc2)c(F)cn1COCc1ccccc1` [Compound 15, 1-(benzyloxymethyl)-4-(benzyloxymethylamino)-5-fluoropyrimidin-2(1H)-one]: the pest or weed control at 100 ppm in data set [1] (setting [4]) and in data set [1] (setting [5]) was 0 to 25% in each case.
For the compound `Cc1ccc(Cn2cc(F)c(N)nc2=O)cc1` [Compound 25, 4-amino-5-fluoro-1-(4-methylbenzyl)-pyrimidin-2(1H)-one], the pest or weed control at 100 ppm in data set [1] (setting [4]) and in data set [1] (setting [5]) was 0 to 25% each time.
Turning to `CCOCn1cc(F)c(NCc2ccccc2F)nc1=O` [Compound 37, 1-(ethoxymethyl)-5-fluoro-4-(2-fluorobenzylamino)-pyrimidin-2(1H)-one], the pest or weed control at 100 ppm in data set [1] (setting [4]) and in data set [1] (setting [5]) was 0 to 25% in each case.
On to `Cc1ccc(Cn2cc(F)c(N(C)Cc3ccccc3F)nc2=O)cc1` [Compound 38, 5-fluoro-4-((2-fluorobenzyl)(methyl)amino)-1-(4-methylbenzyl)pyrimidin-2(1H)-one], for which the pest or weed control at 100 ppm in data set [1] (setting [4]) and in data set [1] (setting [5]) was 0 to 25% in each case.
By melting point is commonly meant the temperature, or range, at which the solid turns liquid. In turn, `Nc1nc(=O)n(-c2ccccc2)cc1F` [Compound 42] gave a melting point of 233 to 235 °C.
Same read-out and setting: with `COc1ccc(-n2cc(F)c(N)nc2=O)cc1` [Compound 44] the figure was 230 to 232 °C.
`Nc1nc(=O)n(-c2ccc(Cl)cc2)cc1F` [Compound 45] gave a melting point of 255 to 257 °C.
Still for that read-out and setting: with `Nc1nc(=O)n(/C=C/c2ccccc2)cc1F` [Compound 48] the figure was 256 to 258 °C; with `Nc1nc(=O)n(/C=C/Cc2ccccc2)cc1F` [Compound 49], 212 to 214 °C; with `CS(=O)(=O)c1ccc(-n2cc(F)c(N)nc2=O)cc1` [Compound 50], 244.4 to 245.7 °C.
The same measure, in the same setting: with `Nc1nc(=O)n(C2=CCCCC2)cc1F` [Compound 51] the figure was 190.6 to 192.7 °C; with `C=C(c1ccccc1)n1cc(F)c(N)nc1=O` [Compound 52], 211.2 to 213 °C.
The compound `CCC/C=C/n1cc(F)c(N)nc1=O` [Compound 53] yielded a melting point of 152.8 to 153.4 °C.
The same measure, in the same setting: with `COc1ccc(/C=C/n2cc(F)c(N)nc2=O)cc1` [Compound 54] the figure was 263.3 to 265.1 °C; with `Nc1nc(=O)n(-c2ccc3ccccc3c2)cc1F` [Compound 55], 272.8 to 274.2 °C; with `CN(C)/C=N/c1nc(=O)n(C2=CCCCC2)cc1F` [Compound 60], 173.2 to 174.4 °C.
As for `C=C(c1ccccc1)n1cc(F)c(/N=C/N(C)C)nc1=O` [Compound 61], the melting point fell in the range of 147 to 147.9 °C.
Take `CCC/C=C/n1cc(F)c(/N=C/N(C)C)nc1=O` [Compound 62]: the melting point fell in the range of 144.7 to 146.3 °C.
Still for that read-out and setting: in the case of `COc1ccc(/C=C/n2cc(F)c(/N=C/N(C)C)nc2=O)cc1` [Compound 63] it was 264.3 to 265.3 °C; in that of `CN(C)/C=N/c1nc(=O)n(-c2ccc3ccccc3c2)cc1F` [Compound 64], 222.4 to 224.4 °C; in that of `CS(=O)(=O)c1ccc(-n2cc(F)c(NCc3ccccc3F)nc2=O)cc1` [Compound 68], 231.6 to 233.1 °C.
For `O=c1nc(NCc2ccccc2F)c(F)cn1C1=CCCCC1` [Compound 69], the melting point is 151.5 to 152.6 °C.
On the same count and under the same terms, with `C=C(c1ccccc1)n1cc(F)c(NCc2ccccc2F)nc1=O` [Compound 70] the figure was 138.9 to 140.2 °C; with `COc1ccc(/C=C/n2cc(F)c(NCc3ccccc3F)nc2=O)cc1` [Compound 72], 196.8 to 198.5 °C; with `O=c1nc(NCc2ccccc2F)c(F)cn1-c1ccc2ccccc2c1` [Compound 73], 207.5 to 209 °C.
Turning to `Nc1nc(=O)n(CC2CC2)cc1F` [Compound 74, 4-amino-1-(cyclopropylmethyl)-5-fluoropyrimidin-2(1H)-one], the pest or weed control at 100 ppm in data set [1] (setting [4]) was in the range of 76 to 100%; in data set [1] (setting [5]) it was 51 to 75%.
Consider `Nc1nc(=O)n(Cc2cccnc2)cc1F` [Compound 75], for which the pest or weed control at 100 ppm in data set [1] (setting [4]) was 26 to 50%; in data set [1] (setting [5]) it was 76 to 100%.
As for `CCOCCn1cc(F)c(N)nc1=O` [Compound 78], the melting point fell in the range of 207.3 to 208.2 °C.
Take `CCOC(=O)Nc1nc(=O)n(Cc2cccnc2)cc1F` [Compound 83]: the pest or weed control at 100 ppm in data set [1] (setting [4]) and in data set [1] (setting [5]) was 26 to 50% each time.
As for `CC(=O)Nc1nc(=O)n(CC2CCCO2)cc1F` (stereo not shown) [Compound 95], the results for the pest or weed control at 100 ppm in data set [1] (setting [4]) and in data set [1] (setting [5]) were 0 to 25% and 51 to 75%, respectively.
For `CC(C)Cn1cc(F)c(NCc2ccccc2F)nc1=O` [Compound 105, 5-fluoro-4-(2-fluorobenzylamino)-1-isobutyl-pyrimidin-2(1H)-one], the results for the pest or weed control at 100 ppm in data set [1] (setting [2]) and in data set [1] (setting [3]) were 0 to 25% and 26 to 50%, respectively.
Regarding `CCNc1nc(=O)n(CC(C)C)cc1F` [Compound 107], the pest or weed control at 100 ppm fell in the range of 0 to 25% in data set [1] (setting [4]) and 26 to 50% in data set [1] (setting [5]).
